# Test results published in PubChem BioAssay AID248 (DTP/NCI, 2004).
# Several values for one entry are separate records, joined by “and”; a condition that tells them apart may be missing. Identical values can stand only once. Inconclusive results and toxic doses are left out.
# Tested on: L1210 leukemia ip in BDF1 mice, survival T/C
# Assay: NCI In Vivo Anticancer Drug Screen. Data for tumor model L1210 Leukemia (intraperitoneal) in B6D2F1 (BDF1) mice
# Settings: endpoint: mean survival time, higher = longer survival
# Method in brief: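 Read-out is survival time, reported as the treated-group measurement over the vehicle-control measurement.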
# [1] = dose: 100.0 mg/kg/injection, schedule: Q04DX002 (ip), vehicle: Klucel (hydroxypropylcellulose) (HPC)
# [2] = dose: 200.0 mg/kg/injection, schedule: Q04DX002 (ip), vehicle: Klucel (hydroxypropylcellulose) (HPC)
# [3] = dose: 400.0 mg/kg/injection, schedule: Q04DX002 (ip), vehicle: Klucel (hydroxypropylcellulose) (HPC)
# [4] = dose: 100.0 mg/kg/injection, schedule: Q01DX001 (ip), vehicle: Klucel (hydroxypropylcellulose) (HPC)
# [5] = dose: 100.0 mg/kg/injection, schedule: Q04DX003 (ip), vehicle: Klucel (hydroxypropylcellulose) (HPC)
# [6] = dose: 200.0 mg/kg/injection, schedule: Q01DX001 (ip), vehicle: Klucel (hydroxypropylcellulose) (HPC)
# [7] = dose: 400.0 mg/kg/injection, schedule: Q01DX001 (ip), vehicle: Klucel (hydroxypropylcellulose) (HPC)
# [8] = dose: 100.0 mg/kg/injection, schedule: Q01DX001 (ip), vehicle: other
# [9] = dose: 200.0 mg/kg/injection, schedule: Q01DX001 (ip), vehicle: other
# [10] = dose: 400.0 mg/kg/injection, schedule: Q01DX001 (ip), vehicle: other
# [11] = dose: 200.0 mg/kg/injection, schedule: Q04DX003 (ip), vehicle: Klucel (hydroxypropylcellulose) (HPC)
# [12] = dose: 100.0 mg/kg/injection, schedule: Q01DX001 (ip), vehicle: saline
# [13] = dose: 200.0 mg/kg/injection, schedule: Q01DX001 (ip), vehicle: saline
smiles,measurement,setting,value
CC(C)COC1CCCC(Oc2ccccc2)O1 (centres undefined),T/C,"dose: 55.0 mg/kg/injection, schedule: Q01DX Z (ip), vehicle: methylcellulose (MC)",92 % of control
same,T/C,"dose: 83.0 mg/kg/injection, schedule: Q01DX Z (ip), vehicle: methylcellulose (MC)",100 % of control
same,T/C,"dose: 125.0 mg/kg/injection, schedule: Q01DX Z (ip), vehicle: methylcellulose (MC)",91 % of control
C1CSP(SCCSP2SCCS2)S1,T/C,"dose: 25.0 mg/kg/injection, schedule: Q01DX009 (ip), vehicle: carboxymethylcellulose (CMC)",87 % of control and 88 % of control
same,T/C,"dose: 25.0 mg/kg/injection, schedule: Q04DX002 (ip), vehicle: carboxymethylcellulose (CMC)",95 % of control and 90 % of control
same,T/C,"dose: 50.0 mg/kg/injection, schedule: Q01DX009 (ip), vehicle: carboxymethylcellulose (CMC)",95 % of control
same,T/C,"dose: 50.0 mg/kg/injection, schedule: Q04DX002 (ip), vehicle: carboxymethylcellulose (CMC)",97 % of control and 90 % of control
same,T/C,"dose: 100.0 mg/kg/injection, schedule: Q01DX009 (ip), vehicle: carboxymethylcellulose (CMC)",95 % of control and 91 % of control
same,T/C,"dose: 200.0 mg/kg/injection, schedule: Q04DX002 (ip), vehicle: carboxymethylcellulose (CMC)",94 % of control
CCCCCCOC(=O)C[n+]1cccc(C(N)=O)c1,T/C,"dose: 100.0 mg/kg/injection, schedule: Q04DX003 (ip), vehicle: saline",95 % of control
Nc1nc2c(nc([Se])n2C2OC(CO)C(O)C2O)c(=O)[nH]1 (centres undefined),T/C,"dose: 100.0 mg/kg/injection, schedule: Q01DX005 (ip), vehicle: saline",98 % of control
same,T/C,"dose: 200.0 mg/kg/injection, schedule: Q01DX005 (ip), vehicle: saline",98 % of control
C(=N\c1oc(-c2ccccc2)nc1Sc1ccccc1)/c1ccccc1,T/C,[1],92 % of control
same,T/C,[2],100 % of control
same,T/C,[3],96 % of control
[Br][Hg][Br].c1ccc(N=P(c2ccccc2)(c2ccccc2)c2ccccc2)cc1,T/C,"dose: 9.38 mg/kg/injection, schedule: Q01DX001 (ip), vehicle: other",95 % of control
same,T/C,"dose: 18.75 mg/kg/injection, schedule: Q01DX001 (ip), vehicle: other",95 % of control
same,T/C,"dose: 37.5 mg/kg/injection, schedule: Q01DX001 (ip), vehicle: other",100 % of control
Cc1c(Cl)cccc1NC(=O)c1c(Cl)c(Cl)c(Cl)c(Cl)c1C(=O)O,T/C,"dose: 100.0 mg/kg/injection, schedule: Q01DX009 (ip), vehicle: Klucel (hydroxypropylcellulose) (HPC)",102 % of control
same,T/C,"dose: 200.0 mg/kg/injection, schedule: Q01DX009 (ip), vehicle: Klucel (hydroxypropylcellulose) (HPC)",103 % of control
CCOC(=O)c1[nH]c(C)c(CC(C(=O)OCC)C(=O)OCC)c1C,T/C,"dose: 25.0 mg/kg/injection, schedule: Q04DX003 (ip), vehicle: Klucel (hydroxypropylcellulose) (HPC)",97 % of control
same,T/C,"dose: 50.0 mg/kg/injection, schedule: Q04DX003 (ip), vehicle: Klucel (hydroxypropylcellulose) (HPC)",93 % of control
same,T/C,[4],101 % of control
same,T/C,[5],95 % of control
same,T/C,[6],95 % of control
same,T/C,[7],98 % of control
Oc1ccc2ccccc2c1C=Nc1ccccc1,T/C,[8],91 % of control
same,T/C,[9],98 % of control
same,T/C,[10],96 % of control
CCCCN(C)N=Nc1ccc([N+](=O)[O-])cc1C(N)=O,T/C,[8],100 % of control
same,T/C,"dose: 100.0 mg/kg/injection, schedule: Q04DX003 (ip), vehicle: saline with Tween-80",110 % of control
same,T/C,[9],105 % of control
same,T/C,"dose: 200.0 mg/kg/injection, schedule: Q01DX009 (ip), vehicle: saline with Tween-80",122 % of control
same,T/C,"dose: 200.0 mg/kg/injection, schedule: Q04DX003 (ip), vehicle: saline with Tween-80",109 % of control
same,T/C,"dose: 266.0 mg/kg/injection, schedule: Q01DX009 (ip), vehicle: saline with Tween-80",160 % of control
same,T/C,[10],110 % of control
same,T/C,"dose: 400.0 mg/kg/injection, schedule: Q01DX009 (ip), vehicle: saline with Tween-80",165 % of control and 170 % of control
same,T/C,"dose: 400.0 mg/kg/injection, schedule: Q04DX003 (ip), vehicle: saline with Tween-80",115 % of control
same,T/C,"dose: 600.0 mg/kg/injection, schedule: Q01DX009 (ip), vehicle: saline with Tween-80",200 % of control
Nc1cc2c(cc1N)C(=O)c1ccccc1C2=O,T/C,"dose: 100.0 mg/kg/injection, schedule: Q01DX001 (ip), vehicle: acetone",95 % of control
same,T/C,[5],101 % of control
same,T/C,"dose: 200.0 mg/kg/injection, schedule: Q01DX001 (ip), vehicle: acetone",98 % of control
same,T/C,[11],94 % of control
same,T/C,"dose: 400.0 mg/kg/injection, schedule: Q01DX001 (ip), vehicle: acetone",102 % of control
same,T/C,"dose: 400.0 mg/kg/injection, schedule: Q04DX003 (ip), vehicle: Klucel (hydroxypropylcellulose) (HPC)",90 % of control
Cc1ncc2c(=O)n(-c3ccc(Br)cc3)[nH]c2n1,T/C,"dose: 100.0 mg/kg/injection, schedule: Q04DX003 (ip), vehicle: gum acacia",96 % of control
same,T/C,"dose: 200.0 mg/kg/injection, schedule: Q04DX003 (ip), vehicle: gum acacia",97 % of control
same,T/C,"dose: 400.0 mg/kg/injection, schedule: Q04DX003 (ip), vehicle: gum acacia",92 % of control
COC(=O)c1ccc(OC)c(-c2cc(OC)ccc2C(=O)OC)c1,T/C,[1],112 % of control
same,T/C,[2],101 % of control
same,T/C,[3],104 % of control
O=C(CCN1CC1)OCCCCOC(=O)CCN1CC1,T/C,"dose: 2.5 mg/kg/injection, schedule: Q01DX009 (ip), vehicle: saline",113 % of control
same,T/C,"dose: 5.0 mg/kg/injection, schedule: Q01DX009 (ip), vehicle: saline",110 % of control
same,T/C,"dose: 6.6 mg/kg/injection, schedule: Q01DX009 (ip), vehicle: saline",94 % of control and 102 % of control
same,T/C,"dose: 10.0 mg/kg/injection, schedule: Q01DX009 (ip), vehicle: saline",102 % of control
same,T/C,"dose: 15.0 mg/kg/injection, schedule: Q01DX009 (ip), vehicle: saline",100 % of control and 107 % of control
same,T/C,"dose: 20.0 mg/kg/injection, schedule: Q01DX009 (ip), vehicle: saline",104 % of control
same,T/C,"dose: 20.0 mg/kg/injection, schedule: Q04DX003 (ip), vehicle: saline",115 % of control
same,T/C,"dose: 40.0 mg/kg/injection, schedule: Q04DX003 (ip), vehicle: saline",104 % of control
same,T/C,"dose: 80.0 mg/kg/injection, schedule: Q04DX003 (ip), vehicle: saline",91 % of control
O=[Se](c1ccccc1)c1ccccc1,T/C,"dose: 25.0 mg/kg/injection, schedule: Q04DX002 (ip), vehicle: Klucel (hydroxypropylcellulose) (HPC)",103 % of control
same,T/C,"dose: 50.0 mg/kg/injection, schedule: Q04DX002 (ip), vehicle: Klucel (hydroxypropylcellulose) (HPC)",94 % of control
same,T/C,[1],87 % of control
COc1ccc(NC(=S)NC2CCCCC2)cc1,T/C,"dose: 100.0 mg/kg/injection, schedule: Q04DX003 (ip), vehicle: other",94 % of control
same,T/C,"dose: 200.0 mg/kg/injection, schedule: Q04DX003 (ip), vehicle: other",88 % of control
same,T/C,"dose: 400.0 mg/kg/injection, schedule: Q04DX003 (ip), vehicle: other",90 % of control
O=C(O)C1C(c2ccccc2)C2(c3ccccc3)C(=O)C1(c1ccccc1)C(c1ccccc1)=C2c1ccccc1 (centres undefined),T/C,"dose: 25.0 mg/kg/injection, schedule: Q01DX001 (ip), vehicle: saline with Tween-80",98 % of control
same,T/C,"dose: 50.0 mg/kg/injection, schedule: Q01DX001 (ip), vehicle: saline with Tween-80",88 % of control
same,T/C,"dose: 100.0 mg/kg/injection, schedule: Q01DX001 (ip), vehicle: saline with Tween-80",91 % of control
same,T/C,"dose: 200.0 mg/kg/injection, schedule: Q01DX001 (ip), vehicle: saline with Tween-80",90 % of control
same,T/C,"dose: 400.0 mg/kg/injection, schedule: Q01DX001 (ip), vehicle: saline with Tween-80",90 % of control
N#C/C(N)=C(/C#N)N=Cc1ccccc1,T/C,[4],97 % of control
same,T/C,[6],98 % of control
same,T/C,[7],98 % of control
Nc1nnnn1N(Cc1ccccc1)Cc1ccccc1,T/C,[5],96 % of control
same,T/C,[11],117 % of control
CN(C)/C=N/c1nccs1,T/C,[12],104 % of control
same,T/C,[13],107 % of control
same,T/C,"dose: 400.0 mg/kg/injection, schedule: Q01DX001 (ip), vehicle: saline",107 % of control
CCOC(=O)c1c(C)c(-c2ccccc2F)nc2ccccc12,T/C,[12],103 % of control
same,T/C,[13],94 % of control
COc1ccc(-c2ccccc2C(=O)O)cc1,T/C,"dose: 100.0 mg/kg/injection, schedule: Q01DX001 (ip), vehicle: carboxymethylcellulose (CMC)",107 % of control
same,T/C,"dose: 200.0 mg/kg/injection, schedule: Q01DX001 (ip), vehicle: carboxymethylcellulose (CMC)",96 % of control
same,T/C,"dose: 400.0 mg/kg/injection, schedule: Q01DX001 (ip), vehicle: carboxymethylcellulose (CMC)",100 % of control
